# Measurements reported in patent US20240270821A1, “GIP/GLP1/GCG TRI-RECEPTOR AGONISTS AND USES THEREOF” (priority 2023, published 2024).
# Starred links: 1 amine or outer side, 2 acyl side, 3 side chain; linkers in the order of their positions; H or OH if unused. Non-standard residues stand in square brackets, D forms with d. Groups on a side chain read outwards from the residue. *: point of attachment. C18 diacid = O=C(O)CCCCCCCCCCCCCCCCC(=O)*; γGlu = O=C(O)[C@H](CCC(=O)[*:2])N[*:1]; αMe4Pal = C[C@](N)(Cc1ccncc1)C(=O)O; αMeY = C[C@](N)(Cc1ccc(O)cc1)C(=O)O; 4Pal = N[C@@H](Cc1ccncc1)C(=O)O; αMeL = CC(C)C[C@](C)(N)C(=O)O; Orn = NCCC[C@H](N)C(=O)O; AEEA = NCCOCCOCC(=O)O; Aib = CC(C)(N)C(=O)O
# Experiments:
# Format in all cases: cell-based
# hGIPR [1] = target: T1, hGIPR (Homo sapiens, UniProt P48546); test: Functional cAMP activity in the presence of 1% HSA; conditions: read-out: cAMP Rel EC50, hGIPR
# T1 sequence (P48546 22-466): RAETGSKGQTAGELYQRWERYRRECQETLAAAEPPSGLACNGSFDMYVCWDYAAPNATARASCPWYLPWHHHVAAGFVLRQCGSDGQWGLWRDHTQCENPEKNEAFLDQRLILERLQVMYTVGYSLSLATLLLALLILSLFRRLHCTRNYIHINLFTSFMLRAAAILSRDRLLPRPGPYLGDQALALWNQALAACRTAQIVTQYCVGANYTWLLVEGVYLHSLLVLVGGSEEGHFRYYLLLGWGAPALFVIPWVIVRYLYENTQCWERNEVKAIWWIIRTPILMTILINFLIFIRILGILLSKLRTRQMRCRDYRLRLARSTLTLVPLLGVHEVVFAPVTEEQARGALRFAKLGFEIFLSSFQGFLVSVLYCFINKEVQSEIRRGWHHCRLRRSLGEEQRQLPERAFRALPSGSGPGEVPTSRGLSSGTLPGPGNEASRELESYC
# hGLP-1R [2] = target: T2, hGLP-1R (Homo sapiens, UniProt P43220); test: Functional cAMP activity in the presence of 1% HSA; conditions: read-out: cAMP Rel EC50, hGLP-1R
# T2 sequence (P43220 24-463): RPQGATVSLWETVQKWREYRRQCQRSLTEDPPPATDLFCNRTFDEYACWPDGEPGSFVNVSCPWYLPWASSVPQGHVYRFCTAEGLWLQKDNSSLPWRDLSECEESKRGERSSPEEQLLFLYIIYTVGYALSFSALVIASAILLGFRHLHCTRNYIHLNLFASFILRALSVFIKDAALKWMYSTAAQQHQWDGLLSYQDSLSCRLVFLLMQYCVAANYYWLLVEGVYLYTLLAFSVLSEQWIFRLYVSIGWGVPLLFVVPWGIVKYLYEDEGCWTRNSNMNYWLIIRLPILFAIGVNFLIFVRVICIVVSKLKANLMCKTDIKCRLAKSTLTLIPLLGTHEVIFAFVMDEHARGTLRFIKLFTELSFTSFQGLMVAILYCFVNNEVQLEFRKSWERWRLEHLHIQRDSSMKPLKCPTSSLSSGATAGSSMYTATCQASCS
# human GcgR = human GcgR (Homo sapiens, UniProt P47871); test: Functional cAMP activity in the presence of 1% HSA; conditions: read-out: cAMP Rel EC50, hGcgR
# Sequence of human GcgR (P47871 26-477): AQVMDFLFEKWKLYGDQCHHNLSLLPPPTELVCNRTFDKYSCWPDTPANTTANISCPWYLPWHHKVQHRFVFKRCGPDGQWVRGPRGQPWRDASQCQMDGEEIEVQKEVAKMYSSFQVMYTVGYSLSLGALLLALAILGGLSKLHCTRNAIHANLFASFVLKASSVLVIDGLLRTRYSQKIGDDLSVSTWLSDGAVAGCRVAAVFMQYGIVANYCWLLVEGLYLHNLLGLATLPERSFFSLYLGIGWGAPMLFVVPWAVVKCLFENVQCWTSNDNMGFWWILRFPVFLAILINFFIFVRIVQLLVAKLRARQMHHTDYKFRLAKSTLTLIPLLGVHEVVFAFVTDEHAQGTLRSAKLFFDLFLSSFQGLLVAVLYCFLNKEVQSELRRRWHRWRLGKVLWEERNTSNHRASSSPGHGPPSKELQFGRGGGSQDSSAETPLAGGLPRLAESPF
# hGIPR [3] = target: T1, hGIPR; test: Functional cAMP activation in the presence of 0.1% casein (no HSA); conditions: in the presence of 0.1% casein (no HSA); geometric mean; read-out: Relative cAMP EC50, hGIPR;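 on Relative cAMP EC50, hGIPR: intracellular cAMP rise after 30 min at 37 °C read by HTRF against a standard curve, scaled between buffer alone (0%) and top control ligand concentration (100%), four-parameter fit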;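 on Relative cAMP EC50, hGLP-1R: intracellular cAMP rise after 30 min at 37 °C read by HTRF, normalized between buffer only (0%) and maximal control ligand (100%), four-parameter variable-slope fit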;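 on Relative cAMP EC50, hGcgR: intracellular cAMP rise after 30 min at 37 °C, read by HTRF against a cAMP standard curve, scaled from buffer only (0%) to maximal control ligand response (100%)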
# hGLP-1R [4] = target: T2, hGLP-1R; test: as above; conditions: in the presence of 0.1% casein (no HSA); geometric mean; read-out: Relative cAMP EC50, hGLP-1R
# hGcgR = hGcgR (Homo sapiens, UniProt P47871); test: as above; conditions: in the presence of 0.1% casein (no HSA); geometric mean; read-out: Relative cAMP EC50, hGcgR;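 further: intracellular cAMP rise after 30 min at 37 °C, read by HTRF against a cAMP standard curve, scaled from buffer only (0%) to maximal control ligand response (100%)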
# Sequence of hGcgR (P47871 26-477): as above
Substance,EC50 (hGIPR [1]) [nM],EC50 (hGLP-1R [2]) [nM],EC50 (human GcgR) [nM],EC50 (hGIPR [3]) [nM],EC50 (hGLP-1R [4]) [nM],EC50 (hGcgR) [nM]
H-Y[Aib]QGTFTSD[4Pal]SR[αMeL]LDKK([γGlu-γGlu-C18 diacid])AQ[αMe4Pal]AFIEYLIAGGPSSGAPPPSGSEE-NH2 [Example 962],9.71,132,485,0.0972,1.36,3.13
H-Y[Aib]QGTFTSD[4Pal]SR[αMeL]LDKK([γGlu-γGlu-C18 diacid])AQ[αMe4Pal]AFIE[αMe4Pal]LIEGGPSSGAPPPSGS-NH2 [Example 953],10.9,347,275,0.111,2.63,2.75
H-Y[Aib]QGTFTSD[4Pal]S[Orn][αMeL]LDKK([AEEA-AEEA-γGlu-C18 diacid])AQ[αMe4Pal]AFIEYLIE[Aib]GPSSGAPPPSGS-NH2 [Example 814],27.8,649,554,0.337,3.76,3.92
H-Y[Aib]QGTFTSD[4Pal]S[Orn][αMeL]LDKK([AEEA-γGlu-C18 diacid])AQ[Aib]AFIEYLLE[dA]GPSSGAPPPSG[4Pal]-NH2 [Example 274],27.6,560,1120,0.296,4.9,9.37
H-Y[Aib]QGTFTSD[4Pal]S[Orn][αMeL]LDKK([AEEA-γGlu-C18 diacid])AQ[Aib]AFIEYLLE[dA]GPSS[Aib]APPPSGT-NH2 [Example 275],27.7,692,882,0.318,4.93,7.8
H-Y[Aib]QGTFTSD[4Pal]S[Orn][αMeL]LDKK([AEEA-γGlu-C18 diacid])AQ[Aib]AFIE[αMeY]LIEGGPSSGAPPPSGS-NH2 [Example 836],26.7,103,2100,0.294,0.794,17.1
H-Y[Aib]QGTFTSD[4Pal]S[Orn][αMeL]LDKK([AEEA-γGlu-C18 diacid])AQ[αMe4Pal]AFIE[αMe4Pal]LIEGGPSSGAPPPSGS-NH2 [Example 949],26,721,317,0.203,3.37,1.62
H-Y[Aib]QGTFTSD[4Pal]S[Orn][αMeL]LDKK([AEEA-γGlu-C18 diacid])AQ[αMe4Pal]AFIE[αMe4Pal]LIEGGPSSGAPPPSGSEE-NH2 [Example 955],42.3,1380,366,0.386,7.74,2.65
H-Y[Aib]QGTFTSD[4Pal]S[Orn][αMeL]LDKK([AEEA-γGlu-γGlu-C18 diacid])AQ[αMe4Pal]AFIEYLIE[Aib]GPSSGAPPPSGS-NH2 [Example 867],16.2,474,242,0.216,7.38,2.47
H-Y[Aib]QGTFTSD[4Pal]S[Orn][αMeL]LDKK([AEEA-γGlu-γGlu-C18 diacid])AQ[αMe4Pal]AFIE[αMe4Pal]LIE[Aib]GPSSGEPPPSGS-NH2 [Example 987],11.7,515,267,0.194,6.33,3.62
H-Y[Aib]QGTFTSD[4Pal]S[Orn][αMeL]LDKK([AEEA-γGlu-γGlu-C18 diacid])AQ[αMe4Pal]AFIE[αMe4Pal]LIE[Aib]GPSSGEPPPSGSE-NH2 [Example 988],11.8,743,320,0.198,9.5,2.52
H-Y[Aib]QGTFTSD[4Pal]S[Orn][αMeL]LDKK([γGlu-AEEA-γGlu-C18 diacid])AQ[αMe4Pal]AFIEYLIE[Aib]GPSSGAPPPSGS-NH2 [Example 868],17.7,822,622,0.208,5.82,7.4
H-Y[Aib]QGTFTSD[4Pal]S[Orn][αMeL]LDKK([γGlu-γGlu-C18 diacid])AQ[Aib]AFIE[αMeY]LIEGGPSSGAPPPSGS-NH2 [Example 941],22.1,113,1430,0.183,0.764,11.7
H-Y[Aib]QGTFTSD[4Pal]S[Orn][αMeL]LDKK([γGlu-γGlu-C18 diacid])AQ[Aib]AFIE[αMeY]LLEGGPSSGAPPPSGS-NH2 [Example 942],28.3,490,1560,0.188,3.52,6.32
H-Y[Aib]QGTFTSD[4Pal]S[Orn][αMeL]LDKK([γGlu-γGlu-C18 diacid])AQ[αMe4Pal]AFIEYLIAGGESSGAPPPSGSEE-NH2 [Example 964],21.4,267,324,0.288,2.67,2.75
H-Y[Aib]QGTFTSD[4Pal]S[Orn][αMeL]LDKK([γGlu-γGlu-C18 diacid])AQ[αMe4Pal]AFIEYLIAGGPSSGAPPPSGSE-NH2 [Example 1009],9.72,174,268,0.13,2.1,4.21
H-Y[Aib]QGTFTSD[4Pal]S[Orn][αMeL]LDKK([γGlu-γGlu-C18 diacid])AQ[αMe4Pal]AFIEYLIAGGPSSGEPPPSGE-NH2 [Example 979],19.2,257,359,0.181,2.72,3.34
H-Y[Aib]QGTFTSD[4Pal]S[Orn][αMeL]LDKK([γGlu-γGlu-C18 diacid])AQ[αMe4Pal]AFIEYLIAGGPSSGEPPPSGTE-NH2 [Example 980],15.4,290,239,0.18,2.26,2.41
H-Y[Aib]QGTFTSD[4Pal]S[Orn][αMeL]LDKK([γGlu-γGlu-C18 diacid])AQ[αMe4Pal]AFIEYLIAGGPSSGEPPPSGTEE-NH2 [Example 981],21.1,330,477,0.243,4.45,3.7
H-Y[Aib]QGTFTSD[4Pal]S[Orn][αMeL]LDKK([γGlu-γGlu-C18 diacid])AQ[αMe4Pal]AFIEYLIAGGPSSGEPPPSGTEEE-NH2 [Example 982],19.4,310,307,0.328,4.94,3.91
H-Y[Aib]QGTFTSD[4Pal]S[Orn][αMeL]LDKK([γGlu-γGlu-C18 diacid])AQ[αMe4Pal]AFIEYLIE[Aib]GPSSGAPPPSGS-NH2 [Example 865],10.8,351,248,0.0797,3.02,1.48
H-Y[Aib]QGTFTSD[4Pal]S[Orn][αMeL]LDKK([γGlu-γGlu-C18 diacid])AQ[αMe4Pal]AFIE[αMe4Pal]LIEGGPSSGAPPPSGS-NH2 [Example 952],16.6,439,266,0.166,4.85,2.4
H-Y[Aib]QGTFTSD[4Pal]S[Orn][αMeL]LDKK([γGlu-γGlu-C18 diacid])AQ[αMe4Pal]AFIE[αMe4Pal]LIEGGPSSGAPPPSGSEE-NH2 [Example 958],27.1,850,340,0.343,9.51,3.17
H-Y[Aib]QGTFTSD[4Pal]S[Orn][αMeL]LDKK([γGlu-γGlu-C18 diacid])AQ[αMe4Pal]AFIE[αMe4Pal]LIE[Aib]GPSSGEPPPSGSE-NH2 [Example 990],9.87,557,276,0.115,5.78,2.47
H-Y[Aib]QGTFTSD[4Pal]S[Orn][αMeL]LDKK([γGlu-γGlu-C18 diacid])AQ[αMe4Pal]AFIE[αMeY]LIAGGPSSGAPPPEGS-NH2 [Example 1015],9.08,92.4,357,0.0822,1.01,3.53
H-Y[Aib]QGTFTSD[4Pal]S[Orn][αMeL]LDKK([γGlu-γGlu-C18 diacid])AQ[αMe4Pal]AFIE[αMeY]LIAGGPSSGEPPPSGS-NH2 [Example 1014],5.62,86.4,277,0.0412,0.718,3.62
H-Y[Aib]QGTFTSD[4Pal]S[Orn][αMeL]LDKK([γGlu-γGlu-C18 diacid])AQ[αMe4Pal]AFIE[αMeY]LIEGGPSSGAPPPSGSEE-NH2 [Example 967],39.5,345,508,0.205,1.75,1.94
